For assay [1], the target named is T1, Tyrosinase (Agaricus bisporus, UniProt O42713).
T1 sequence (O42713 whole entry): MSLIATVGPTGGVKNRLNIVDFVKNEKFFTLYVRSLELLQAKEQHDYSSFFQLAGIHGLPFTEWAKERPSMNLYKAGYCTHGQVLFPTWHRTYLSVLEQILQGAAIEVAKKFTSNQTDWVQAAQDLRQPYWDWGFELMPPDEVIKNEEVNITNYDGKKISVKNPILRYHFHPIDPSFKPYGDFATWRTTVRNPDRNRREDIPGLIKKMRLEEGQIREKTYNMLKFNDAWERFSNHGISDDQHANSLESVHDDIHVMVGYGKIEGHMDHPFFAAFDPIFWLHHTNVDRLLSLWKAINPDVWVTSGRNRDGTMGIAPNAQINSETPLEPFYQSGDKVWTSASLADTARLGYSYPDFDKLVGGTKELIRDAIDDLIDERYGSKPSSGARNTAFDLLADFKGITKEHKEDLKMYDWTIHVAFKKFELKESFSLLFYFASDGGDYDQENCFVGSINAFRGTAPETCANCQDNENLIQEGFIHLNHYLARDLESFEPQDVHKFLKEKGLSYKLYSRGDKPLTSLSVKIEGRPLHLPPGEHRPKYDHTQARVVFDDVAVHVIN
Put plainly: Inhibition of mushroom tyrosinase using L-DOPA as substrate preincubated for 10 mins by spectrophotometric analysis.

For assay [2], the target named is T2, Tyrosinase (Agaricus bisporus) (UniProt O42713).
T2 sequence (whole entry): T1 sequence (O42713 whole entry)
The assay is described as follows: Inhibition of mushroom tyrosinase using L-DOPA as substrate at 200 uM preincubated for 10 mins by spectrophotometric analysis relative to control.

Assay [3] has as its target T1, Tyrosinase.
Description: Competitive inhibition of mushroom tyrosinase diphenolase activity assessed as L-DOPA conversion to dopachrome by Lineweaver-Burk plot analysis
The target in assay [4] is T2, Tyrosinase (Agaricus bisporus). The assay is described as follows: Reversible inhibition of mushroom tyrosinase diphenolase activity assessed as L-DOPA conversion to dopachrome by Lineweaver-Burk plot analysis.

Calls of active or inactive are those of the source. The rule behind the calls is not given here.

As to `COc1ccc(-c2nn(-c3ccccc3)cc2/C=C2\SC(Nc3ccc(OC)cc3OC)=NC2=O)cc1`, the IC50 against Tyrosinase [1] turned out to be 114 µM. Further, the inhibition in assay [2] came to 46.8%.
Consider `COc1ccc(NC2=NC(=O)/C(=C/c3cn(-c4ccccc4)nc3-c3ccc(F)cc3)S2)c(OC)c1`, for which, on Tyrosinase [1], the half-maximal inhibitory concentration (IC50) was 104 µM. Further, the inhibition in assay [2] is 54.2%. The affinity on Tyrosinase [3], expressed as Ki, was 7.18 µM.
For the molecule `COc1ccc(NC2=NC(=O)/C(=C/c3cn(-c4ccccc4)nc3-c3cccc(Cl)c3)S2)c(OC)c1`, the inhibition entry in assay [4] is “Active”. The same molecule yielded an IC50 against Tyrosinase [1] of 52.6 µM. Also, the inhibition in assay [2] came out at 110%. The molecule also came in with a Ki on Tyrosinase [3] of 21.5 µM.
For `COc1ccc(NC2=NC(=O)/C(=C/c3cn(-c4ccccc4)nc3-c3ccccc3Cl)S2)c(OC)c1`, in that order: “Active”, 34.1 µM, 126% and 29.1 µM.
On Tyrosinase [1], `COc1ccc(NC2=NC(=O)/C(=C/c3cn(-c4ccccc4)nc3-c3ccc(Cl)cc3Cl)S2)c(OC)c1` came in with an IC50 of 81.7 µM. Besides, the inhibition in assay [2] was 52%. Further, the Ki at Tyrosinase [3] was found to be 16.9 µM.
Take `COc1ccc(NC2=NC(=O)/C(=C/c3cn(-c4ccccc4)nc3-c3ccc(C)cc3)S2)c(OC)c1`: the IC50 at Tyrosinase [1] was found to be 194 µM. For the same molecule, the inhibition in assay [2] is 13.5%.
With `COc1ccc(NC2=NC(=O)/C(=C/c3cn(-c4ccccc4)nc3-c3ccccc3)S2)c(OC)c1`, the inhibition in assay [2] worked out at 8.03%.
Regarding `COc1ccc(NC2=NC(=O)/C(=C/c3cn(-c4ccccc4)nc3-c3ccc(Cl)cc3)S2)c(OC)c1`, the IC50 on Tyrosinase [1] was determined as 74 µM. Moreover, the inhibition in assay [2] came to 38%. The Ki at Tyrosinase [3] is 5.7 µM.
The molecule `COc1ccc(NC2=NC(=O)/C(=C/c3cn(-c4ccccc4)nc3-c3ccc(Br)cc3)S2)c(OC)c1` displayed a half-inhibitory concentration (IC50) against Tyrosinase [1] of 131 µM. Further, the inhibition in assay [2] was found to be 87.9%. Further, the Ki on Tyrosinase [3] was determined as 9.46 µM.

The record behind these values is ChEMBL document CHEMBL2380275, “Synthesis of new heterocyclic hybrids based on pyrazole and thiazolidinone scaffolds as potent inhibitors of tyrosinase” (Bioorg Med Chem, 2013).
